{"source": "patent US8003602B2", "about": "(priority 2006, dated 2011)", "key": {"E. faecium (R-2)": {"tested_on": "E. faecium (R-2)", "format": "cell-based, Enterococcus faecium", "conditions": "E. faecium R-2 (VRE)", "description": "(§1) The in-vitro potency was established by minimum inhibitory concentration (MIC) determinations of the compound PM181104 against bacterial strains, by using the Macro-broth dilution method as per National Committee for Clinical Laboratory Standards (2000) guidelines [Journal of Anti-microbial Chemotherapy, 2002, 50, 125-128 (Cross Reference 8: Methods for Dilution Antimicrobial Susceptibility Tests for Bacteria that Grow Aerobically-Fifth Edition: Approved Standard M7-A5. NCCLS, Wayne, Pa., USA)]. Unless stated otherwise, Mueller-Hinton broth was used as nutrient medium for the assay. Linezolid (manufactured by Glenmark Pharma Ltd; Batch no: K2005028) was used as known standard in all in-vitro experiments. For preparation of the stock solution the compound PM181104 was dissolved in chloroform (5% of the total required volume) and diluted using methanol (95% of the total required volume)."}, "S. aureus E-710 [1]": {"tested_on": "S. aureus E-710", "test": "Neutropenic thigh model", "format": "in vivo, Balb/C mice", "conditions": "Linezolid at 25 mg/kg dose", "description": "(§2) The in-vivo potency was established by protection dose (PD) determinations of the compound PM181104 for its antibiotic activity in three animal models using either male or female Balb/C mice.\n(§3) The models used were the general purpose efficacy testing models and organ/tissue specific efficacy testing models. The general purpose efficacy testing models used were systemic infection model (septicemia), and localized infection model (neutropenic thigh model). The Organ/Tissue specific infection models used for efficacy testing were kidney, lung infection, and skin abscess model.\nEach experimental group consisted of six animals. PM181104 was prepared in cremophor-ethanol formulation as described in example 14."}, "[2]": {"tested_on": "methicillin resistant S. aureus E710 (MRSA)", "format": "in vivo, Balb/C mice", "conditions": "Linezolid at 50 mg/kg dose", "description": "as §2, §3\nBalb/C mice were infected subcutaneously with approximately 10^8 cfu of an overnight grown culture of methicillin resistant S. aureus E710 (MRSA). The bacteria were suspended in 1:1 mixture of 2% cytodex beads in normal saline (0.85% sodium chloride). PM181104 was prepared in cremophor-ethanol formulation as described in example 14. The solution was administered intravenously at 2.5 mg, 5 mg and 10 mg/kg doses, two hours post infection. Each experimental group consisted of six animals. Following abscess formation the animals were sacrificed and abscess harvested to determine the viable counts. […] Linezolid (manufactured by Glenmark Pharma Ltd; Batch no: K2005028) at 50 mg/kg dose."}, "[3]": {"tested_on": "methicillin resistant Staphylococcus aureus E710 (MRSA)", "test": "Systemic infection model (septicemia)", "format": "in vivo, Balb/C mice", "conditions": "mice infected intraperitoneally with MRSA E710, administered intravenously immediately after infection", "description": "as §2, §3\nThe animals were infected intraperitoneally with ˜10^8 to 10^9 cfu of an overnight grown culture of methicillin resistant Staphylococcus aureus E710 (MRSA), suspended in normal saline (0.85% sodium chloride). PM181104 solution was prepared in cremophor-ethanol formulation as described in example 14. The solution was administered intravenously at 5 mg, 2.5 mg and 1.25 mg/kg doses, immediately after infection. Each experimental group consisted of ten animals."}, "S. aureus E-710 [4]": {"tested_on": "S. aureus E-710", "test": "Lung infection model", "format": "in vivo, Balb/C mice", "description": "as §2, §3\nBalb/C mice were rendered neutropenic by intraperitoneally administering 200 mg/kg cyclophosphamide four days and two days prior to infection. On the day of infection, the mice were anesthetized and infected with S. aureus E-710 log-phase culture suspension having bacterial density of approximately 10^6 to 10^7 cfu/ml. 24 and 36 hours post infection the first and second respective dose of drug was administered intravenously. 48 hours post infection, the animals were humanely euthanized and their lungs were aseptically collected to determine the viable count of bacteria. In this model, PM181104 was tested at 5 mg/kg dose prepared in cremophor-ethanol formulation as described in example 14. Two standard antibiotics viz. Linezolid (80 mg/kg single dose at 24 hours post infection) and Vancomycin (110 mg/kg, two doses at 24 and 48 hours post infection) were used as positive controls."}, "[5]": {"tested_on": "Enterococcus faecium ATCC 47077", "test": "Kidney infection model", "format": "in vivo, Balb/C mice", "description": "as §2, §3\n0.2 ml of 2% λ Carrageenan was administered intravenously to Balb/C mice 7 days prior to infection. Overnight grown log phase culture of Enterococcus faecium ATCC 47077 adjusted to approximately 10^9 cfu/ml, was injected intravenously to the mice at a volume of 0.2 ml. PM181104 solution, prepared in cremophor-ethanol formulation as described in example 14, was administered intravenously to the mice at 4 hours, 24 hours and 48 hours post-infection. At 72 hours post infection, the animals were sacrificed and kidneys were harvested to determine the bacterial load. […] Linezolid (manufactured by Glenmark Pharma Ltd; Batch no: K2005028) at 25 mg/kg and Vancomycin hydrochloride (manufactured by HiMedia; Catalogue no: RM217-500 mg; Lot no: 06-0350) at 150 mg/kg dose."}, "E. faecalis ATCC 51575": {"tested_on": "E. faecalis ATCC 51575", "format": "cell-based", "description": "as §1"}, "[6]": {"tested_on": "Staphylococcus aureus subsp. aureus ATCC 33591", "format": "cell-based", "conditions": "S. aureus MRSA ATCC 33591", "description": "as §1"}, "E. faecalis, ATCC 51299": {"tested_on": "E. faecalis, ATCC 51299", "format": "cell-based", "description": "as §1"}, "S. aureus (E710)": {"tested_on": "S. aureus (E710)", "test": "MIC, Macro-broth dilution method", "format": "cell-based, Staphylococcus aureus", "conditions": "S. aureus MRSA E710", "description": "as §1"}, "E. faecium ATCC 51559": {"tested_on": "E. faecium ATCC 51559", "format": "cell-based, Enterococcus faecium", "description": "as §1"}, "E. faecalis ATCC BAA 472": {"tested_on": "E. faecalis ATCC BAA 472", "test": "MIC, Macro-broth dilution method", "format": "cell-based", "description": "as §1"}}, "note": "Counter-ions that a name gives are not always drawn."}
{"smiles": "C=C(NC(=O)C(=C)NC(=O)C1CCCN1C(=O)c1nc(-c2ccc(-c3nc(C(=O)NC(=C)C(=O)NC(C)C(N)=O)cs3)c(-c3csc(C4Cc5nc(cs5)C(=O)NC(Cc5ccccc5)C5=NC(CS5)C(=O)NC(Cc5ccc(OC(=O)CCC)cc5)C(=O)N5CCCC5c5nc(cs5)C(=O)N4)n3)n2)oc1C)C(N)=O", "note": "(stereo not shown) [Butyric Acid Ester Derivative of PM181104]", "values": [{"measurement": "MIC", "setting": "E. faecium (R-2)", "result": 2.5, "unit": "µg/mL"}]}
{"smiles": "CC(=O)NC[C@H]1CN(c2ccc(N3CCOCC3)c(F)c2)C(=O)O1", "note": "[Linezolid, reference compound]", "values": [{"measurement": "decrease in viable counts in thigh tissue, comparison with PM181104", "setting": "S. aureus E-710 [1]", "result": "comparable"}, {"measurement": "decrease in bacterial count in abscess, comparison with PM181104", "setting": "[2]", "result": "comparable"}, {"measurement": "PD100", "setting": "[3]", "result": 25, "unit": "mg/kg"}, {"measurement": "activity profile in lung infection, comparison with PM181104", "setting": "S. aureus E-710 [4]; Linezolid 80 mg/kg single dose at 24 hours post infection", "result": "comparable"}, {"measurement": "decrease in bacterial count in kidneys, comparison with PM181104", "setting": "[5]; Linezolid at 25 mg/kg", "result": "comparable"}]}
{"smiles": "C=C(NC(=O)C(=C)NC(=O)C1CCCN1C(=O)c1nc(-c2ccc(-c3nc(C(=O)NC(=C)C(=O)NC(C)C(N)=O)cs3)c(-c3csc(C4Cc5nc(cs5)C(=O)NC(Cc5ccccc5)C5=NC(CS5)C(=O)NC(Cc5ccc(OC(=O)c6cccnc6)cc5)C(=O)N5CCCC5c5nc(cs5)C(=O)N4)n3)n2)oc1C)C(N)=O", "note": "(stereo not shown) [Nicotinic Acid Ester Derivative of PM181104]", "values": [{"measurement": "MIC", "setting": "E. faecalis ATCC 51575", "result": 0.312, "unit": "µg/mL"}, {"measurement": "MIC", "setting": "[6]", "result": ">10", "unit": "µg/mL"}, {"measurement": "MIC", "setting": "E. faecalis, ATCC 51299", "result": 0.312, "unit": "µg/mL"}, {"measurement": "MIC", "setting": "S. aureus (E710)", "result": ">10", "unit": "µg/mL"}, {"measurement": "MIC", "setting": "E. faecium (R-2)", "result": 0.312, "unit": "µg/mL"}, {"measurement": "MIC", "setting": "E. faecium ATCC 51559", "result": 0.156, "unit": "µg/mL"}, {"measurement": "MIC", "setting": "E. faecalis ATCC BAA 472", "result": 0.312, "unit": "µg/mL"}]}
{"smiles": "C=C(NC(=O)C(=C)NC(=O)C1CCCN1C(=O)c1nc(-c2ccc(-c3nc(C(=O)NC(=C)C(=O)NC(C)C(N)=O)cs3)c(-c3csc(C4Cc5nc(cs5)C(=O)NC(Cc5ccccc5)C5=NC(CS5)C(=O)NC(Cc5ccc(OC(=O)CCCCCCCCCCCCCCCCC)cc5)C(=O)N5CCCC5c5nc(cs5)C(=O)N4)n3)n2)oc1C)C(N)=O", "note": "(stereo not shown) [Stearic Acid Ester Derivative of PM181104]", "values": [{"measurement": "MIC", "setting": "E. faecium (R-2)", "result": 1.25, "unit": "µg/mL"}]}
{"smiles": "CN[C@H](CC(C)C)C(=O)N[C@H]1C(=O)N[C@@H](CC(N)=O)C(=O)N[C@H]2C(=O)N[C@H]3C(=O)N[C@H](C(=O)N[C@H](C(=O)O)c4cc(O)cc(O)c4-c4cc3ccc4O)[C@H](O)c3ccc(c(Cl)c3)Oc3cc2cc(c3O[C@@H]2O[C@H](CO)[C@@H](O)[C@H](O)[C@H]2O[C@H]2C[C@](C)(N)[C@H](O)[C@H](C)O2)Oc2ccc(cc2Cl)[C@H]1O", "note": "[Vancomycin hydrochloride, reference compound]", "values": [{"measurement": "activity profile in lung infection", "setting": "S. aureus E-710 [4]; Vancomycin 110 mg/kg, two doses at 24 and 48 hours post infection", "result": "bactericidal profile"}, {"measurement": "decrease in bacterial count in kidneys, comparison with PM181104", "setting": "[5]; Vancomycin hydrochloride at 150 mg/kg dose", "result": "comparable"}]}
